The values below come from ChEMBL document CHEMBL1130043, “Chemometric methodologies in a quantitative structure-activity relationship study: the antibacterial activity of 6-aminoquinolones” (1997).

Molecules are shown by their SMILES.

Holding throughout (assay type): functional
Test [1] has as its system Staphylococcus aureus. In words: Antibacterial activity against Staphylococcus aureus ATCC 6538 (Gram positive) strain.
Test [2] relates to Providencia stuartii. In words: Antibacterial activity against Providencia stuartii CNUR 5(Gram negative) strain.
Test [3] has as its system Klebsiella pneumoniae. The test can be described thus: Antibacterial activity against Klebsiella pneumoniae ATCC 10031 (Gram negative) strain.
Test [4] concerns Staphylococcus epidermidis. The test can be described thus: The compound was tested in vitro for antibacterial activity against Staphylococcus epidermidis CPHL A2 (Gram positive) strain.
Test [5] has as its system Staphylococcus aureus. In words: Antibacterial activity against Staphylococcus aureus MPR 5 (Gram positive) strain.
Test [6] concerns Escherichia coli. In words: Antibacterial activity against Escherichia coli ATCC 8739(Gram negative) strain.
Test [7] deals with Acinetobacter calcoaceticus. The test can be described thus: Antibacterial activity against Acinetobacter calcoaceticus OSMPV 113 (Gram negative) strain.
Test [8] has as its system Enterobacter cloacae. The test can be described thus: Antibacterial activity against Enterobacter cloacae OMNFI 174 (Gram negative) strain.
In test [9] the test system is Enterococcus faecalis. The test can be described thus: Antibacterial activity against Streptococcus faecalis LEP Br (Gram positive) strain.
The test system of test [10] is Escherichia coli. The test can be described thus: Antibacterial activity against Escherichia coli ISF 432(Gram negative) strain.
Test [11] has as its system Staphylococcus epidermidis. In words: Antibacterial activity against Staphylococcus epidermidis HCF Berset C (Gram positive) strain.
In test [12] the test system is Pseudomonas aeruginosa. The test can be described thus: Antibacterial activity against Pseudomonas aeruginosa ATCC 9027(Gram negative) strain.
In test [13] the test system is Shigella. In words: Antibacterial activity against Shigella enteritidis (Gram negative) strain.
For test [14], the system named is Staphylococcus epidermidis. The test can be described thus: The compound was tested in vitro for antibacterial activity against Staphylococcus epidermidis CPHL A2 (Gram positive) strain.
For test [15], the system named is Acinetobacter calcoaceticus. In words: The compound was tested for in vitro antibacterial activity against Acinetobacter calcoaceticus OSMPV 113(Gram negative) strain.
Test [16] deals with Staphylococcus epidermidis. In words: Antibacterial activity against Staphylococcus epidermidis CPHL A2 (Gram positive) strain, activity is expressed as log2MIC.
In test [17] the test system is Pseudomonas aeruginosa. The test can be described thus: The compound was tested for in vitro antibacterial activity against Pseudomonas aeruginosa ATCC 9027(Gram negative) strain.
For test [18], the system named is Escherichia coli. In words: The compound was tested for in vitro antibacterial activity against Escherichia coli ISF 432 (Gram negative) strain.
In test [19] the test system is Escherichia coli. In words: The compound was tested for in vitro antibacterial activity against Escherichia coli ATCC 8739 (Gram negative) strain.
The test system of test [20] is Acinetobacter calcoaceticus. The test can be described thus: The compound was tested for in vitro antibacterial activity against Acinetobacter calcoaceticus OSMPV 113 (Gram negative) strain.
Test [21] has as its system Staphylococcus aureus. The test can be described thus: The compound was tested for in vitro antibacterial activity against Staphylococcus aureus ATCC 6538 (Gram positive) strain.
The test system of test [22] is Staphylococcus aureus. In words: The compound was tested for in vitro antibacterial activity against Staphylococcus aureus MPR 5 (Gram positive) strain.
Test [23] deals with Pseudomonas aeruginosa. The test can be described thus: The compound was tested for in vitro antibacterial activity against Pseudomonas aeruginosa ATCC 9027 (Gram negative) strain.

`CC(=O)NC1CCN(c2c(N)cc3c(=O)c(C(=O)O)cn(C4CC4)c3c2C)C1` (stereo not drawn): the “Log2 MIC” value turned out to be 3 in [1]; 2 in [2]; 9 in test [3]; 3 in [4]; 3 in test [5]; 10 in [6]. Besides, the “Log2 MIC” value is listed as 5 in test [7]; 5 in test [8]; 1 in test [9]; 10 in [10]; 3 in test [11]; 3 in test [12]. For the same molecule, the “Log2 MIC” value in [13] was found to be 5.
On to `Nc1cc2c(=O)c(C(=O)O)cn(C3CC3)c2cc1Cl`, for which the “Log2 MIC” value in test [1] is reported as 0; in test [2], 1; in test [3] it was 6; in test [5] it was 0; in [6], 6; in test [7], 0. For the same molecule, the “Log2 MIC” value in test [14] was found to be 0; in test [8] it was 3; in test [9] it was 0; in test [10], 6; in test [11], 1; in test [12] it was 0. Further, the “Log2 MIC” value in test [13] amounted to 3.
Take `Cc1c(N2CCCC2)c(N)cc2c(=O)c(C(=O)O)cn(C3CC3)c12`: the “Log2 MIC” value in test [1] was found to be 5; in test [2] it was 1; in [3], 8; in test [4], 3; in [5], 5; in test [6], 2. For the same molecule, the “Log2 MIC” value is 3 in [7]; 1 in [8]; 1 in test [9]; 7 in test [10]; 3 in test [11]; 0 in test [12]. In test [13], the “Log2 MIC” value came out at 1.
`Nc1cc2c(=O)c(C(=O)O)cn(C3CC3)c2cc1N1CCC(N)C1` (stereo not drawn): the “Log2 MIC” value in test [1] is 0; in test [2], 0; in [3] it was 7; in test [4], 0; in [5], 0; in [6], 7. Further, the “Log2 MIC” value is 0 in [7]; 3 in [8]; 0 in test [9]; 8 in [10]; 0 in test [11]; 3 in [12]. In [13], the “Log2 MIC” value came out at 3.
With `CN1CCN(c2nc3c(c(N)c2N)c(=O)c(C(=O)O)cn3C2CC2)CC1`, the “Log2 MIC” value amounted to 6 in test [1]; 8 in [2]; 13 in [3]; 6 in [4]; 6 in test [5]; 9 in [6]. Moreover, the “Log2 MIC” value in [7] is reported as 8; in test [8], 9; in test [9] it was 4; in [10] it was 13; in test [11], 6; in test [12] it was 4. In test [13], the “Log2 MIC” value worked out at 8.
Regarding `Cc1c(N2CCSCC2)c(N)cc2c(=O)c(C(=O)O)cn(C3CC3)c12`, the “Log2 MIC” value in test [1] is reported as 11; in test [2], 6; in [3], 12.5; in [4], 10; in [5], 11; in [6], 9. Also, the “Log2 MIC” value in test [7] is on record as 10; in test [8], 9; in test [9], 8; in [10], 12; in test [11] it was 10; in test [12], 7. Also, the “Log2 MIC” value in [13] was 10.
Regarding `Cc1c(N2CCNC(C)C2)c(N)cc2c(=O)c(C(=O)O)cn(C3CC3)c12` (stereo not drawn), the “Log2 MIC” value in [1] was determined as 7; in test [2], 6; in [3], 12; in test [4], 7; in test [5], 7; in test [6] it was 10. In addition, the “Log2 MIC” value in test [7] is given as 6; in [8] it was 10; in test [9] it was 5; in [10] it was 12; in test [11], 7; in [12], 7. Also, in [13], the Log2 MIC is 11.
`O=C(O)c1cn(C2CC2)c2cc(N3CCNCC3)c(F)cc2c1=O` [CIPROFLOXACIN]: the “Log2 MIC” value was 11 in test [2]; 12 in test [3]; 11 in test [4]; 11 in test [15]; 11 in [16]; 11 in test [7]. The entries for the “Log2 MIC” value in test [9], in test [17] and in [12] were 8, 11 and 11, respectively.
On to `CN1CCN(c2c(F)cc3c(=O)c(C(=O)O)cn4c3c2SCC4)CC1` [RUFLOXACIN], for which the “Log2 MIC” value was found to be 9 in [18]; 6 in test [2]; 9 in test [3]; 8 in [16]; 9 in test [19]; 8 in test [8]. In addition, the “Log2 MIC” value in test [9] is given as 5; in test [20], 7; in test [21] it was 8; in test [11], 7; in [22], 8; in [23] it was 5. For the same molecule, in test [13], the “Log2 MIC” value was determined as 10.
